One assay addresses T1, P2X3 (UniProt P56373).
T1 sequence (P56373 1-397): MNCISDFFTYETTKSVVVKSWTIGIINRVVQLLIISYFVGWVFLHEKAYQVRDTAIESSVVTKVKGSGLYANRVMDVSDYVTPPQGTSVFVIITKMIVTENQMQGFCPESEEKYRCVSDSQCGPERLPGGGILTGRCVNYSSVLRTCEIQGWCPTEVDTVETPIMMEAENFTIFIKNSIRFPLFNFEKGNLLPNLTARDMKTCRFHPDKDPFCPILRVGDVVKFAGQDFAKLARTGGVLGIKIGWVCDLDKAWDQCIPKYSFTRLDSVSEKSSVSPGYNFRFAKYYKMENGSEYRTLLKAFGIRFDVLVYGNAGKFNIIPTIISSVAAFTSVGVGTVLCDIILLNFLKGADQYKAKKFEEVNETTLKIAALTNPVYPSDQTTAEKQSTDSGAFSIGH
Nature of the assay: FLIPR intracellular calcium assay, P2X3. The assay is classed as cell-based, human or rat. The following applies: agonist at EC75, species of receptor not given. From the text:
(§1) The FLIPR® assay utilizes cells which express human or rat P2X3 or P2X2/3 receptors. Recombinant cells expressing hP2X3 (Cat #6188) and hP2X2/3 (Cat #6179) were procured from Chantest Corp. Rat P2X2 (NCBI Accession No: U14414) was amplified by PCR from PC12 cDNA (a rat adrenal medulla cell line). The PCR product obtained containing the protein coding sequence of rat P2X2 was cloned into EcoRV-digested and dephosphorylated vector pIRES-puro3 within the multiple cloning site (MCS). See, FIG. 1A.
(§2) Cryo-vial containing 6×10^6 cells (human P2X3-HEK/human P2X2/3-TRex293/rat P2X2/3-TRex293/rat P2X3 TRex-CHO) was thawed in a 37° C. water bath. Cells were suspended in 20 mL of respective cell plating media (See annexure for composition) in a 50 mL centrifuge tube. The cell viability was checked with the help of Trypan Blue dye. Upon washing, cells were plated in a black 384-well clear bottomed, sterile poly-D-lysine coated plate such that, each well contained 10,000 cells (15,000/well for hP2X3) in 30 μL cell plating media. The plate was incubated in a 5% CO2 incubator at 37° C. for 24 h.
(§3) The next day, prior to the assay, the cell plating media was removed from each well by decanting and gentle tapping. Thirty μL of FLIPR Calcium 4 dye solution was added to each well. The plate was incubated at 37° C. for 45 min (60 min for hP2X3). The plate was next equilibrated at room temperature for 15 minutes before placing it in a 384 well FLIPR for the assay.
(§4) Compounds were dissolved in DMSO and serially diluted following 11 point half log (3.16 fold) dilution with a starting concentration of 2 mM. Dilutions were mixed with assay buffer just before performing the assay.
(§5) Compounds were added to the respective wells of the assay-ready cell plate with the help of the FLIPR and fluorescence readings were captured for 5 min to observe any possible agonistic property of the compounds. The plate was then incubated at room temperature for 15 min. The cells were stimulated with respective agonist EC75 concentration and the fluorescence readings were captured for another 5 min by FLIPR. The difference in fluorescence readings in presence of the compounds were compared with that of the control wells (wells having no compound) to calculate the inhibitory potency of the compounds. The IC50 values of the compounds were determined using the Graph pad Prism software.
(Calcium flux is commonly read through the fluorescence of an indicator in the cells.)

For a further assay, the target named is T2, P2X2/3 (UniProt P56373+Q9UBL9).
T2 construct: hP2X2/3 (Cat #6179)
T2 sequence (P56373 1-397): T1 sequence (P56373 1-397)
T2 sequence (Q9UBL9 1-471): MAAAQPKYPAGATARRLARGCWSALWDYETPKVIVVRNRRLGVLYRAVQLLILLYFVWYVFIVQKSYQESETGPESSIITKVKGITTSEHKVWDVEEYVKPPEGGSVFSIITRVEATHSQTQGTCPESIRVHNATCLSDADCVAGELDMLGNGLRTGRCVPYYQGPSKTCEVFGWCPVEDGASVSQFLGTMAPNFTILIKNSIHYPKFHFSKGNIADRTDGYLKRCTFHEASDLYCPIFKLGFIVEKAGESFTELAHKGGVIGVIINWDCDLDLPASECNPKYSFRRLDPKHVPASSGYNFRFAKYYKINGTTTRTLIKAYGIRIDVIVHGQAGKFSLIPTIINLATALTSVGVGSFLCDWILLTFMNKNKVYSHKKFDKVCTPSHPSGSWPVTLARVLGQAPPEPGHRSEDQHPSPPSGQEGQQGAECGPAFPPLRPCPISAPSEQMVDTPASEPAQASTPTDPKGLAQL
The assay can be described thus: FLIPR intracellular calcium assay, P2X2/3. The class given is cell-based, human or rat. The following applies: agonist at EC75, species of receptor not given.
Description: as §1, §2, §3, §4, §5

For assay [1], the system named is formalin-induced hind limb flinches. The assay can be described thus: Formalin induced pain (Automated Nociception Analyzer test). The assay is classed as in vivo. The following applies: rat, oral gavage 100 mg/kg, 30 min before footpad formalin injection. On the procedure:
Male Sprague Dawley rats of young adult age group and body weight range of 200-250 g were included in the study. Animals were housed under a 12 h light/dark cycle with food and water ad libitum. Animals were acclimatized in the observation chambers of Automated Nociception Analyzer (ANA) for 45-60 min, twice daily for two days prior to the study day. On the day of the study, metal bands were glued to the plantar surface of the right hind paw of each animal enrolled in the study set and kept in plastic observation chambers for 10-15 min. Formalin injection was done in the animals after 0.5 or 1 h of oral treatment with test compound or vehicle (20% polyethylene glycol, 1% TweenTM 80 reagent, 79% water). Formalin injection of the animals was done with 50 μL of 2.5% formalin (freshly prepared from formaldehyde solution, Sigma, USA, Cat # F8775) injected subcutaneously in to the dorsum of right hind paw. Animals were placed back to their respective recording chambers of ANA immediately after injection. […] count data for each animal was recorded from 1 to 60 min post formalin injection, using ANA motion analysis software. The study was analyzed in 2 phases, the early phase extended from 0-10 min and second phase extended from 11-60 min post formalin injection. The data was collected in 5 min time bins and the counts of each bin were added up for total count of the phase. […]

Assay [2] concerns acetic acid induced writhing (visceral pain). Nature of the assay: Acetic acid induced writhing test. To be noted: mouse, oral gavage 20, 40 and 60 mg/kg, 30 min before i.p. acetic acid, counted 15 min. The assay is classed as in vivo. Here is the method:
Swiss albino mice of 30-40 g were included in the study. The mice were given an intraperitoneal injection of 0.7% v/v acetic acid solution at an injection volume of 10 mL/kg, 30 min after oral administration of vehicle or test article control. Test articles were administered, typically, at doses between 20 and 60 mg/kg. The mice were placed individually into glass chambers. The number of writhes produced in these animals was counted for 15 min following acetic acid administration. For scoring purposes writhing was indicated by stretching of the abdomen with simultaneous stretching of at least one hind limb. See, e.g., FIG. 4. Statistical analysis was done with One way ANOVA followed by Dunnett's multiple comparison tests. Comparison was done between treatment groups and vehicle with respect to total number of writhes and p<0.05 was considered statistically significant. Each group comprised of 6 animals.

SMILES strings stand for the structures.

The term IC50 denotes the concentration that inhibits the measured activity by half. Take `CCCCc1cnc2c(N3CCC(C)CC3)cc(C(=O)N[C@@H](C)c3nnc[nH]3)cn12` [Example 9, (S)—N-(1-(4H-1,2,4-Triazol-3-yl)ethyl)-3-butyl-8-(4-methylpiperidin-1-yl)imidazo[1,2-a]pyridine-6-carboxamide]: the IC50 at P2X3 and at P2X2/3 was 1000 to 10000 nM each time.

Turning to `CCc1cnnn1-c1cc(C(=O)NCc2ccc(C)nc2)cn2c(-c3ccc(C)s3)cnc12` [Example 22], the “second phase flinching response to formalin” value in assay [1] was “attenuated”. For the same compound, in assay [2], the “pain responses (writhes) after acetic acid” value is on record as “clear dose-related reduction”.

As to `Cc1ccc(-c2cnc3c(Nc4ccccc4)cc(C(=O)NCc4ccc(C)[n+]([O-])c4)cn23)s1` [Example 89], the values for the IC50 on P2X3 and on P2X2/3 were 1 to 100 nM and 100 to 1000 nM, respectively.

For the compound `CCCSc1cnc2c(N3CCC(C)CC3)cc(C(=O)NCc3ccc(C)[n+]([O-])c3)cn12` [Example 114], at P2X3, the IC50 lay in the range of 1 to 100 nM.

In the case of `Cc1ccc(-c2cnc3c(N4CCC(C)CC4)cc(C(=O)NCc4ccc(C)[n+]([O-])c4)cn23)s1` [Example 117], the IC50 at P2X3 and on P2X2/3 was 1 to 100 nM each time.

With `Cc1ccc(CNC(=O)c2cc(N3CCC(C)CC3)c3ncc(-c4ccc(Cl)s4)n3c2)c[n+]1[O-]` [Example 119], the values for the IC50 at P2X3 and at P2X2/3 were 1 to 100 nM and 100 to 1000 nM, respectively.

Turning to `Cc1ccc(-c2cnc3c(NC4CCCCC4)cc(C(=O)NCc4ccc(C)[n+]([O-])c4)cn23)s1` [Example 120], the IC50 on P2X3 and at P2X2/3 was 1 to 100 nM throughout.

Regarding `Cc1ccc(-c2cnc3c(N4CCC(C)(C)CC4)cc(C(=O)NCc4ccc(C)[n+]([O-])c4)cn23)s1` [Example 122], the IC50 at P2X3 and on P2X2/3 was 1 to 100 nM throughout.

With `Cc1ccc(-c2cnc3c(N4CCC(F)(F)CC4)cc(C(=O)NCc4ccc(C)[n+]([O-])c4)cn23)s1` [Example 123], the IC50 on P2X3 is greater than 10000 nM; on P2X2/3, 1 to 100 nM.

For `Cc1ccc(-c2cnc3c(NC4CCCCC4)cc(C(=O)NCc4ccc(C(F)(F)F)[n+]([O-])c4)cn23)s1` [Example 124], the IC50 on P2X3 and on P2X2/3 was 100 to 1000 nM in each case.

Turning to `Cc1cnc(-c2cnc3c(N4CCC(C)CC4)cc(C(=O)NCc4ccc(C)[n+]([O-])c4)cn23)s1` [Example 125], the IC50 on P2X3 and at P2X2/3 was 100 to 1000 nM throughout.

As to `Cc1ccc(-c2cnc3c(N(C)C4CCCCC4)cc(C(=O)NCc4ccc(C)[n+]([O-])c4)cn23)s1` [Example 126], the values for the IC50 on P2X3 and on P2X2/3 were greater than 10000 nM and 1 to 100 nM, respectively.

For `Cc1ccc(-c2cnc3c(N4CCC(F)CC4)cc(C(=O)NCc4ccc(C)[n+]([O-])c4)cn23)s1` [Example 127], the half-maximal inhibitory concentration (IC50) at P2X3 is greater than 10000 nM; on P2X2/3 it was 1 to 100 nM.

As for `Cc1ccc(-c2cnc3c(N4CCC(C(F)(F)F)CC4)cc(C(=O)NCc4ccc(C)[n+]([O-])c4)cn23)s1` [Example 131], the IC50 on P2X3 lay in the range of 1 to 100 nM; at P2X2/3 it was 100 to 1000 nM.

Regarding `Cc1ccc(-c2cnc3c(N4CCC(CF)CC4)cc(C(=O)NCc4ccc(C)[n+]([O-])c4)cn23)s1` [Example 132], the half-inhibitory concentration (IC50) on P2X3 and on P2X2/3 was 1 to 100 nM each time.

Regarding `Cc1ccc(-c2cnc3c(N4CCC(F)(F)CC4)cc(C(=O)N[C@@H](C)C4=NN=CC4)cn23)s1` [Example 143], the IC50 fell in the range of 1000 to 10000 nM at P2X3 and 100 to 1000 nM on P2X2/3.

As to `Cc1ccc(-c2cnc3c(N4CCC(C)CC4)cc(C(=O)NCc4ccc[n+]([O-])c4)cn23)s1` [Example 147], the IC50 lay in the range of 1000 to 10000 nM on P2X3 and 100 to 1000 nM at P2X2/3.

For `COc1ccc(CNC(=O)c2cc(-n3nnnc3C3CCC3)c3ncc(-c4ccc(C)s4)n3c2)cn1` [Example 163], the IC50 at P2X3 was greater than 10000 nM; on P2X2/3, 1 to 100 nM.

For `Cc1ccc(-c2cnc3c(-n4nnnc4C4CCC4)cc(C(=O)N[C@@H](C)c4nnc[nH]4)cn23)s1` [Example 165], the IC50 on P2X3 and on P2X2/3 was 1 to 100 nM each time.

Take `Cc1ccc(-c2cnc3c(-n4nnnc4C4CC4)cc(C(=O)N[C@@H](C)c4nnc[nH]4)cn23)s1` [Example 167]: the IC50 on P2X3 lay in the range of 1 to 100 nM; at P2X2/3, 100 to 1000 nM.

The record behind these values is patent US9908879B2, “P2X3 and/or P2X2/3 compounds and methods” (Asana Biosciences, LLC, priority 2013, dated 2018).
